Assay results reported in ChEMBL document CHEMBL1201862, “PubChem BioAssay data set” (2004).
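Grown in 96-well plates, cells were treated for 48 hours with each compound at five concentrations. Insufficient inhibition: endpoint recorded as highest concentration tested. At the GI50, growth is halved.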 Calls of active or inactive are those of the source. Rule as the data show it: active = GI50 up to about 1.1 µM and inactive = higher.

Columns and labels:
Assay in all cases: NCI tumour cell line growth inhibition, 48 h
LXFL 529 = test system: LXFL 529
M14 = test system: M14
CCRF-CEM = test system: CCRF-CEM
786-0 = test system: 786-0
UACC-62 = test system: UACC-62
HOP-92 = test system: HOP-92
OVCAR-8 = test system: OVCAR-8
HT-29 = test system: HT-29
OVCAR-4 = test system: OVCAR-4
HOP-18 = test system: HOP-18
COLO 205 = test system: COLO 205
OVCAR-3 = test system: OVCAR-3
KM-20L2 = test system: KM-20L2
SR = test system: SR
NCI/ADR-RES = test system: NCI/ADR-RES
MCF7 = test system: MCF7
PC-3 = test system: PC-3
Hs-578T = test system: Hs-578T
MDA-N = test system: MDA-N
T47D = test system: T47D

Structure (SMILES) | GI50 (LXFL 529) | GI50 (M14) | GI50 (CCRF-CEM) | GI50 (786-0) | GI50 (UACC-62) | GI50 (HOP-92) | GI50 (OVCAR-8) | GI50 (HT-29) | GI50 (OVCAR-4) | GI50 (HOP-18) | GI50 (COLO 205) | GI50 (OVCAR-3) | GI50 (KM-20L2) | GI50 (SR) | GI50 (NCI/ADR-RES) | GI50 (MCF7) | GI50 (PC-3) | GI50 (Hs-578T) | GI50 (MDA-N) | GI50 (T47D)
O=C(Nc1nc2c(ncn2C2OC(CO)C(O)C2O)c(=O)[nH]1)c1ccccc1 (configuration not stated) | > 100 µM (inactive) | > 100 µM (inactive) | 2.5 µM (inactive) | > 100 µM (inactive) | > 100 µM (inactive) | > 100 µM (inactive) | > 100 µM (inactive) | > 100 µM (inactive) | > 100 µM (inactive) | > 100 µM (inactive) | > 100 µM (inactive) | > 100 µM (inactive) | > 100 µM (inactive) | > 100 µM (inactive) |  |  |  |  |  | 
Cc1ccc2c(ccc(/C=C/c3ccc(O)c4ncccc34)[n+]2C)c1 | 1.16 µM (inactive) | 13.6 µM (inactive) | 2.42 µM (inactive) | 5.57 µM (inactive) | 8.04 µM (inactive) | 14.7 µM (inactive) | 2.38 µM (inactive) | 12.2 µM (inactive) | 5.09 µM (inactive) | 13.1 µM (inactive) | 5.38 µM (inactive) | 0.817 µM (active) | 4.85 µM (inactive) | 2.74 µM (inactive) | > 49.5 µM (inactive) | 7.36 µM (inactive) | > 25.3 µM (inactive) | > 100 µM (inactive) | > 24 µM (inactive) | 
C=CCC1(CN(C)C)CC/C(=C\c2cc(OC)c(OC)c(OC)c2)C1=O (configuration not stated) | 17.9 µM (inactive) | 19.4 µM (inactive) | 23.3 µM (inactive) | 19.4 µM (inactive) | 21.3 µM (inactive) | 90.6 µM (inactive) | 22.8 µM (inactive) | 20.5 µM (inactive) | 22.2 µM (inactive) | 22.3 µM (inactive) | 17 µM (inactive) | 24 µM (inactive) | 22 µM (inactive) | 19.6 µM (inactive) |  |  |  |  |  | 
Cc1ccc(NC(=O)C(=O)C2C(=O)N(c3ccccc3)N=C2N)cc1C (configuration not stated) | > 100 µM (inactive) | > 100 µM (inactive) | > 100 µM (inactive) | > 100 µM (inactive) | > 100 µM (inactive) | > 100 µM (inactive) | > 100 µM (inactive) | > 100 µM (inactive) | > 100 µM (inactive) | > 100 µM (inactive) | > 100 µM (inactive) | > 100 µM (inactive) | > 100 µM (inactive) | > 100 µM (inactive) |  |  |  |  |  | 
O=c1c(Cc2ccccc2)c(O)cc2n1CCC2 | > 100 µM (inactive) | > 100 µM (inactive) | 41.5 µM (inactive) | > 100 µM (inactive) | > 100 µM (inactive) | > 100 µM (inactive) | > 100 µM (inactive) | > 100 µM (inactive) | > 100 µM (inactive) | > 100 µM (inactive) | > 100 µM (inactive) | > 100 µM (inactive) | > 100 µM (inactive) | > 100 µM (inactive) |  |  |  |  |  | 
O=CN/C=C\c1cc(O)ccc1O | 10.8 µM (inactive) | 13.5 µM (inactive) | 5.11 µM (inactive) | 15.8 µM (inactive) | 11.6 µM (inactive) | 14.2 µM (inactive) | 15.6 µM (inactive) | 16.9 µM (inactive) | 12.7 µM (inactive) | 16.8 µM (inactive) | 14.2 µM (inactive) | 12.2 µM (inactive) | 14.8 µM (inactive) | 3.91 µM (inactive) |  |  |  |  |  | 
Cc1ccc2nc3c(C)c(Cl)c(=O)cc-3sc2c1 | 4.94 µM (inactive) | 15.2 µM (inactive) | 3.63 µM (inactive) | 49.7 µM (inactive) | 8.57 µM (inactive) | 34.4 µM (inactive) | 11.2 µM (inactive) | 60.5 µM (inactive) | 18 µM (inactive) | 19.7 µM (inactive) | 29.9 µM (inactive) | 6.97 µM (inactive) | 78 µM (inactive) | 5.86 µM (inactive) |  | 17.6 µM (inactive) | 8.93 µM (inactive) | 21.7 µM (inactive) | 16.9 µM (inactive) | 58.1 µM (inactive)
CC(C)C1=Cc2ccc3c(c2C(=O)C1=O)CCCC3(C)C [MILTIRONE] | 1.86 µM (inactive) | 5.46 µM (inactive) | 1.17 µM (inactive) | 5.65 µM (inactive) | 5.66 µM (inactive) | 4.18 µM (inactive) | 4.29 µM (inactive) | 20.1 µM (inactive) | 1.77 µM (inactive) | 2.58 µM (inactive) | 4.19 µM (inactive) | 2.58 µM (inactive) | 20.3 µM (inactive) | 2.36 µM (inactive) |  |  |  |  |  | 
